In paper PMC8158775, “Structure–Activity Relationship Assessment of Sophorolipid Ester Derivatives against Model Bacteria Strains” (Molecules, 2021):
≈ marks a conversion by molar mass, not a printed value. Entries after “also recorded” stand apart in the source; their conditions may differ. Where two headings read alike, the source gives them in different places.

Legend:
[1] = tested on: Listeria innocua (ATCC 33090); experiment: Minimum inhibitory concentration (microdilution); assay type: cell-based; conditions: read-out: MIC L. innocua
Method: (§1) Bacteria strains Staphylococcus aureus (ATCC 33807), Bacillus cereus (ATCC 4342), Bacillus subtilis (ATCC 21332), Listeria innocua (ATCC 33090), and Escherichia coli (ATCC 53323) were provided by Ravi Kane’s lab at Rensselaer Polytechnic Institute. Mueller–Hinton broth (MHB) was used for the Staphylococcus aureus culture, while tryptic soy broth (TSB) was used for the other strains. All strains were grown to the stationary phase for 24 h at 37 °C with agitation at 220 rpm. After overnight incubation, cultures were diluted to 5 × 10^6 CFU/mL prior to use.
(§2) The minimum inhibitory concentration (MIC) was determined using the microdilution technique. Modified sophorolipid (SL) derivatives were dissolved in DMSO to make 2 M stock solutions. A dilution series was made by diluting the stock solution to a range of concentrations from 200 µM to 4 µM and a final volume of 100 μL in 10% DMSO/phosphate-buffered saline (PBS) in each well of a 96-well plate. Bacterial inocula (100 μL, 5 × 10^6 CFU/mL) were added to each well, and the final DMSO concentration was 5%. Wells containing the same volumes of DMSO/PBS buffer and culture medium, with and without bacteria, were used as positive and negative controls, respectively. Streptomycin was used for comparison. The plate was then incubated with shaking for 16–30 h at 37 °C to ensure that cultures had reached stationary phase growth and the absorbance readings were recorded at a wavelength of 600 nm using an absorbance microplate reader. Absorbance data from 16–30 h were used to calculate the percent inhibition for each test condition. MIC was recorded as the lowest concentration of drug that inhibited more than 90% of bacterial growth. All assays were carried out in triplicate.

[2] = tested on: Bacillus subtilis (ATCC 21332); experiment: Minimum inhibitory concentration (microdilution); assay type: cell-based; conditions: read-out: MIC B. subtilis
Method: as §1, §2

[3] = tested on: Escherichia coli (ATCC 53323); experiment: Minimum inhibitory concentration (microdilution); assay type: cell-based; conditions: read-out: MIC E. coli
Method: as §1, §2

[4] = tested on: Bacillus cereus (ATCC 4342); experiment: Minimum inhibitory concentration (microdilution); assay type: cell-based; conditions: read-out: MIC B. cereus
Method: as §1, §2

[5] = tested on: Staphylococcus aureus (ATCC 33807); experiment: Minimum inhibitory concentration (microdilution); assay type: cell-based; conditions: read-out: MIC S. aureus
Method: as §1, §2

[6] = tested on: M1 activated macrophages (AMOs) from Raw 254.7 murine macrophages; experiment: In vitro cytotoxicity study; assay type: cell-based; conditions: for cytotoxicity ranking: comparison within SL series
From the text: A potential antimicrobial candidate must selectively kill pathogen cells without harming the host mammalian cells. To test the ability of SLs to effectively discriminate between bacteria and mammalian cells, a cytotoxicity assay was previously reported by our team. […] The therapeutic index (TI) is a parameter commonly used to determine potential drug selectivity. […] Generally, membrane-active agents are not considered for systemic administration directly, because of relatively low selectivity. Thus, designing suitable formulations and selecting suitable dose ranges are important in drug development.

B. cereus cell membrane = experiment: Dye leakage / membrane depolarization assay with diS-C3(5); assay type: cell-based, Bacillus cereus; conditions: 40 μg/mL (58–60 μM), t = 60 min, diS-C3(5) probe; listed as LSL
Method: To probe the role of LSL and the SL-esters as membrane-active agents, dye leakage experiments were carried out. Polymyxin B, a well-known membrane-active agent, was used as a positive control. Polymyxin B is a cyclic peptide with long, hydrophobic tails that can insert into cell membranes causing cell lysis. First, time-course membrane-depolarizing studies were conducted (Figure 3A). […] Upon addition of B. cereus cells at 2 min, a rapid decay in fluorescence intensity was observed due to self-quenching caused by migration of the probe into membranes. Subsequent addition of the SL-esters at 4 min led to a sharp increase in the fluorescence signal, thus indicating enhanced permeability of the cell membrane driven by the presence of the SL derivative.
The disruption of bacterial membranes after treatment with LSL and SL-ester derivatives was tested using a fluorescence probe, diS-C3(5), which can be quenched by the electrically polarized membrane. B. Cereus grown to mid-log phase was adjusted to 2.5 × 10^6 CFU/mL in fresh MHB. […] Fluorescence data were recorded at 670 nm with excitation at 622 nm on Molecular Devices SPECTRAmax Plus 384 UV-VIS High Throughput Microplate Spectrophotometer and normalized against the negative control.

[7] = Listeria innocua, ATCC33090, incubation time 30 h, lowest concentration inhibiting more than 90% of bacterial growth
[8] = Bacillus subtilis, ATCC21332, incubation time 16 h, lowest concentration inhibiting more than 90% of bacterial growth
[9] = Escherichia coli, ATCC53323, incubation time 16 h, lowest concentration inhibiting more than 90% of bacterial growth
[10] = Bacillus cereus, ATCC4342, incubation time 16 h, lowest concentration inhibiting more than 90% of bacterial growth
[11] = incubation time 16 h, lowest concentration inhibiting more than 90% of bacterial growth
[12] = Staphylococcus aureus, ATCC33807, incubation time 16 h, lowest concentration inhibiting more than 90% of bacterial growth
[13] = incubation time 30 h, lowest concentration inhibiting more than 90% of bacterial growth
[14] = 16 h incubation, procedure of ref 17

Row | Structure (SMILES) | MIC [1, 7] | MIC [2, 8] | MIC [3, 9] | MIC [4, 10] | MIC [5, 12] | further results
1 | CCOC(=O)CCCCCCC/C=C\CCCCCCC(C)OC1OC(COC(C)=O)C(O)C(O)C1OC1OC(COC(C)=O)C(O)C(O)C1O (stereo not shown) [ESL-(6′Ac, 6″Ac)] | > 200 µM | > 200 µM | > 200 µM | 12 µM (≈ 8.82 µg/mL) | – | –
2 | CCOC(=O)CCCCCCC/C=C\CCCCCCC(C)OC1OC(COC(C)=O)C(O)C(O)C1OC1OC(CO)C(O)C(O)C1O (stereo not shown) [ESL-(6′Ac, 6″OH)] | 25 µM (≈ 17.3 µg/mL) | 25 µM (≈ 17.3 µg/mL) | > 200 µM | 25 µM (≈ 17.3 µg/mL) | – | –
3 | CCOC(=O)CCCCCCC/C=C\CCCCCCC(C)OC1OC(CO)C(O)C(O)C1OC1OC(COC(C)=O)C(O)C(O)C1O (stereo not shown) [ESL-(6′OH, 6″Ac)] | 25 µM (≈ 17.3 µg/mL) | 25 µM (≈ 17.3 µg/mL) | > 200 µM | 25 µM (≈ 17.3 µg/mL) | – | –
4 | CC(=O)OCC1OC2OC(C)CCCCCC/C=C\CCCCCCCC(=O)OC3C(COC(C)=O)OC(OC2C(O)C1O)C(O)C3O (stereo not shown) [Lactonic SL, reference compound] | 50 µM (≈ 34.4 µg/mL) | 12 µM (≈ 8.27 µg/mL) | > 200 µM | 25 µM (≈ 17.2 µg/mL) | 25 µM (≈ 17.2 µg/mL) | MIC [3, 11]: > 200 µM; reduction in cell viability ([6]; at 50 µM, procedure of ref 17): roughly 50%; cytotoxicity ranking [6]: highest cytotoxicity; ability to enhance cell membrane permeability (endpoint fluorescence) (B. cereus cell membrane): non-significant ability to enhance cell membrane permeability; also recorded: failed to enhance membrane permeability
5 | CCCCOC(=O)CCCCCCC/C=C\CCCCCCC(C)OC1OC(CO)C(O)C(O)C1OC1OC(CO)C(O)C(O)C1O (stereo not shown) [SL-butyl ester] | 12 µM (≈ 8.15 µg/mL) | 12 µM (≈ 8.15 µg/mL) | > 200 µM | 12 µM (≈ 8.15 µg/mL) | 100 µM (≈ 67.9 µg/mL) | MIC [1, 13]: 12 µM (≈ 8.15 µg/mL); MIC [2, 11]: 12 µM (≈ 8.15 µg/mL); MIC [5, 11]: 100 µM (≈ 67.9 µg/mL); MIC [4, 11]: 12 µM (≈ 8.15 µg/mL); concentration up to which low to no cytotoxicity [6, 14]: 100 to 200 µM
6 | CCOC(=O)CCCCCCC/C=C\CCCCCCC(C)OC1OC(CO)C(O)C(O)C1OC1OC(CO)C(O)C(O)C1O (stereo not shown) [SL-ethyl ester] | 50 µM (≈ 32.5 µg/mL) | 50 µM (≈ 32.5 µg/mL) | > 200 µM | 50 µM (≈ 32.5 µg/mL) | 200 µM (≈ 130 µg/mL) | concentration up to which low to no cytotoxicity [6, 14]: 100 to 200 µM
7 | CCCCCCOC(=O)CCCCCCC/C=C\CCCCCCC(C)OC1OC(CO)C(O)C(O)C1OC1OC(CO)C(O)C(O)C1O (stereo not shown) [SL-hexyl ester] | > 200 µM | > 200 µM | > 200 µM | > 200 µM | > 200 µM | MIC [1, 13]: > 200 µM; MIC [2, 11]: > 200 µM; MIC [5, 11]: > 200 µM; MIC [4, 11]: > 200 µM
8 | COC(=O)CCCCCCC/C=C\CCCCCCC(C)OC1OC(CO)C(O)C(O)C1OC1OC(CO)C(O)C(O)C1O (stereo not shown) [SL-methyl ester] | – | – | – | – | – | MIC ([1]; Listeria innocua, ATCC33090, 30 h): 100 µM (≈ 63.7 µg/mL); MIC [1, 13]: 100 µM (≈ 63.7 µg/mL); MIC ([2]; Bacillus subtilis, ATCC21332, 16 h): 50 µM (≈ 31.8 µg/mL); MIC [2, 11]: 50 µM (≈ 31.8 µg/mL); MIC ([3]; Escherichia coli, ATCC53323, 16 h): > 200 µM; MIC ([5]; Staphylococcus aureus, ATCC33807, 16 h): 200 µM (≈ 127 µg/mL); MIC [5, 11]: 200 µM (≈ 127 µg/mL); MIC ([4]; Bacillus cereus, ATCC4342, 16 h): 50 µM (≈ 31.8 µg/mL); MIC [4, 11]: 50 µM (≈ 31.8 µg/mL); cell reduction ([6]; 400 µM, 16 h incubation, procedure of ref 17): no significant cell reduction; cytotoxicity ranking [6]: lowest toxicity
9 | CCCCCOC(=O)CCCCCCC/C=C\CCCCCCC(C)OC1OC(CO)C(O)C(O)C1OC1OC(CO)C(O)C(O)C1O (stereo not shown) [SL-pentyl ester] | 12 µM (≈ 8.31 µg/mL) | > 200 µM | > 200 µM | 12 µM (≈ 8.31 µg/mL) | > 200 µM | –
10 | CCCOC(=O)CCCCCCC/C=C\CCCCCCC(C)OC1OC(CO)C(O)C(O)C1OC1OC(CO)C(O)C(O)C1O (stereo not shown) [SL-propyl ester] | 25 µM (≈ 16.6 µg/mL) | 25 µM (≈ 16.6 µg/mL) | > 200 µM | 25 µM (≈ 16.6 µg/mL) | 100 µM (≈ 66.5 µg/mL) | concentration up to which low to no cytotoxicity [6, 14]: 100 to 200 µM
11 | [H]/N=C(/N)N[C@H]1[C@H](O)[C@@H](O)[C@H](O[C@@H]2O[C@@H](C)[C@](O)(C=O)[C@H]2O[C@@H]2O[C@@H](CO)[C@H](O)[C@@H](O)[C@@H]2NC)[C@@H](N/C(N)=N\[H])[C@@H]1O [Streptomycin, reference compound] | 24 µM (≈ 14 µg/mL) | 12 µM (≈ 6.98 µg/mL) | 12 µM (≈ 6.98 µg/mL) | 12 µM (≈ 6.98 µg/mL) | 3 µM (≈ 1.74 µg/mL) | –
